# The source made the active and inactive calls. The rule behind the calls is not given here.
# Key:
# [1] = species: Oryctolagus cuniculus; assay: Relative potency was calculated from the Actin depolymerizing activity (aplyronine A = 100); assay type: functional
# [2] = F-Actin (40 uM) depolymerizing activity which was monitored by measuring flow birefringence.; assay type: functional, Oryctolagus cuniculus
# [3] = test system: HeLa; assay: Evaluated for the cytotoxicity against HeLa S3 cells; assay type: functional, cell-based; details: Homo sapiens
# [4] = test system: HeLa; assay: Relative potency was calculated from the cytotoxicity against HeLa S3 cells (aplyronine A = 100); assay type: functional, Homo sapiens
# [5] = Compound was evaluated for the F-Actin (40 uM) depolymerizing activity which was monitored by measuring flow birefringence (Actin was extracted in cold water from the acetone-dried powder of rabbit skeletal muscle); assay type: functional, tissue-based, Oryctolagus cuniculus, Muscle tissue
# [6] = Compound was evaluated for the F-Actin (40 uM) depolymerizing activity* which was monitored by measuring flow birefringence (Actin was extracted in cold water from the acetone-dried powder of rabbit skeletal muscle); assay type: functional, tissue-based, Oryctolagus cuniculus, Muscle tissue
# [7] = species: Oryctolagus cuniculus; assay: Relative potency was calculated from the Actin depolymerizing activity (aplyronine A = 100); Inactive; assay type: functional
# [8] = Compound was evaluated for the F-Actin (40 uM) depolymerizing activity which was monitored by measuring flow birefringence (Actin was extracted in cold water from the acetone-dried powder of rabbit skeletal muscle); Inactive; assay type: functional, tissue-based, Oryctolagus cuniculus, Muscle tissue
SMILES,Relative potency [1],IC50 [2] [µM],IC50 [3] [µg/mL],Relative potency [4],IC50 [5] [µM],IC50 [6] [µM],Relative potency [7],IC50 [8]
COCC(C(=O)O[C@@H]1CCCCCC(=O)O[C@H]([C@@H](C)[C@@H](O)[C@@H](C)CC[C@@H](OC(=O)C(C)N(C)C)[C@H](C)[C@H](OC(C)=O)[C@H](C)CCO)C/C=C/[C@H](OC)C[C@H](C)C/C=C(\C)[C@@H](OC)CC[C@@H](C)[C@@H](O)[C@@H]1C)N(C)C (stereo not given in full),44,70,0.057,0.84,–,–,–,–
CO[C@H]1CC[C@@H](C)[C@@H](O)[C@H](C)[C@H](O)C/C=C/C=C/C(=O)O[C@H]([C@@H](C)[C@@H](O)[C@@H](C)CC[C@@H](OC(=O)C(C)N(C)C)[C@H](C)[C@H](OC(C)=O)[C@H](C)/C=C/N(C)C=O)C/C=C/[C@H](OC)C[C@H](C)C/C=C/1C (stereo not given in full) [APLYRONINE C],97,32,0.0212,2.3,–,–,–,–
CO[C@H]1CC[C@@H](C)[C@@H](O)[C@H](C)[C@H](O)C/C=C/C=C/C(=O)O[C@H]([C@@H](C)[C@@H](O)[C@@H](C)CC[C@@H](O)[C@H](C)[C@H](OC(C)=O)[C@H](C)/C=C/N(C)C=O)C/C=C/[C@H](OC)C[C@H](C)C/C=C/1C,86,35,0.113,0.42,–,–,–,–
COCC(C(=O)O[C@@H]1C/C=C/C=C/C(=O)O[C@H]([C@@H](C)[C@@H](O)[C@@H](C)CC[C@@H](O)[C@H](C)[C@H](OC(C)=O)[C@H](C)CCO)C/C=C/[C@H](OC)C[C@H](C)C/C=C/[C@@H](OC)CC[C@@H](C)[C@@H](O)[C@@H]1C)N(C)C (stereo not given in full),86,36,0.037,1.3,–,–,–,–
COCC(C(=O)O[C@@H]1C/C=C/C=C/C(=O)O[C@H]([C@@H](C)[C@@H](O)[C@@H](C)CO)C/C=C/[C@H](OC)C[C@H](C)C/C=C/[C@@H](OC)CC[C@@H](C)[C@@H](O)[C@@H]1C)N(C)C (stereo not given in full),0.69,–,> 2,<0.02,4500,–,–,–
COCC(C(=O)O[C@@H]1C/C=C/C=C/C(=O)O[C@H]([C@@H](C)[C@@H](OC(C)=O)[C@@H](C)CC[C@@H](OC(=O)C(C)N(C)C)[C@H](C)[C@H](OC(C)=O)[C@H](C)/C=C/N(C)C=O)C/C=C/[C@H](OC)C[C@H](C)C/C=C(\C)[C@@H](OC)CC[C@@H](C)[C@@H](OC(C)=O)[C@@H]1C)N(C)C (stereo not given in full),54,57,0.216,0.22,–,–,–,–
COCC(C(=O)O[C@@H]1C/C=C/C=C/C(=O)O[C@H]([C@@H](C)[C@@H](O)[C@@H](C)COC(=O)C(C)N(C)C)C/C=C/[C@H](OC)C[C@H](C)C/C=C/[C@@H](OC)CC[C@@H](C)[C@@H](O)[C@@H]1C)N(C)C (stereo not given in full),1.7,1800,–,–,–,–,–,–
COCC(C(=O)O[C@@H]1C/C=C/C=C/C(=O)OCC/C=C/[C@H](OC)C[C@H](C)C/C=C(\C)[C@@H](OC)CC[C@@H](C)[C@@H](O)[C@@H]1C)N(C)C (stereo not given in full),–,–,2.1,0.023,–,–,–,–
C[C@H]([C@H](O)[C@H](C)CCO)[C@H](O)CC[C@H](C)[C@H](O)[C@H](C)[C@@H](O)CCO,0.41,–,–,–,–,7600,–,–
COCC(C(=O)O[C@H]1[C@H](C)[C@H](O)C/C=C/C=C/C(=O)O[C@H]([C@@H](C)[C@@H](O)[C@@H](C)CC[C@@H](OC(=O)C(C)N(C)C)[C@H](C)[C@H](OC(C)=O)[C@H](C)/C=C/N(C)C=O)C/C=C/[C@H](OC)C[C@H](C)C/C=C(\C)[C@@H](OC)CC[C@H]1C)N(C)C (stereo not given in full) [APLYRONINE B],94,33,0.00311,15,–,–,–,–
COCC(C(=O)O[C@@H]1C/C=C/C=C/C(=O)O[C@H]([C@@H](C)[C@@H](O)[C@@H](C)CC[C@@H](OC(=O)C(C)N(C)C)[C@H](C)[C@H](OC(C)=O)[C@H](C)CCO)C/C=C/[C@H](OC)C[C@H](C)C/C=C(\C)[C@@H](OC)CC[C@@H](C)[C@@H](O)[C@@H]1C)N(C)C (stereo not given in full),40,78,0.00172,28,–,–,–,–
COCC(C(=O)O[C@@H]1C/C=C/C=C/C(=O)OCC/C=C/[C@H](OC)C[C@H](C)C/C=C/[C@@H](OC)CC[C@@H](C)[C@@H](O)[C@@H]1C)N(C)C (stereo not given in full),–,–,–,–,–,–,inactive,Not Active
COCC(C(=O)O[C@@H]1C/C=C/C=C/C(=O)O[C@H]([C@@H](C)[C@@H](O)[C@@H](C)CC[C@@H](O)[C@H](C)[C@H](OC(C)=O)[C@H](C)/C=C/N(C)C=O)C/C=C/[C@H](OC)C[C@H](C)C/C=C(\C)[C@@H](OC)CC[C@@H](C)[C@@H](O)[C@@H]1C)N(C)C (stereo not given in full),86,35,0.00103,47,–,–,–,–
COCC(C(=O)O[C@@H]1C/C=C/C=C/C(=O)O[C@H]([C@@H](C)[C@@H](O)[C@@H](C)CC[C@@H](O)[C@H](C)[C@H](O)[C@H](C)CCO)C/C=C/[C@H](OC)C[C@H](C)C/C=C/[C@@H](OC)CC[C@@H](C)[C@@H](O)[C@@H]1C)N(C)C (stereo not given in full),16,190,0.083,0.58,–,–,–,–
CO[C@@H]1/C=C/C[C@@H](C)C[C@@H](OC)/C=C/C[C@@H]([C@@H](C)[C@@H](O)[C@@H](C)CC[C@@H](OC(=O)CN(C)C)[C@H](C)[C@H](OC(C)=O)[C@H](C)CCO)OC(=O)/C=C/C=C/C[C@@H](OC(=O)CN(C)C)[C@@H](C)[C@H](O)[C@H](C)CC1,63,49,> 2,<0.02,–,–,–,–
COCC(C(=O)O[C@@H]1C/C=C/C=C/C(=O)O[C@H]([C@@H](C)[C@@H](O)[C@@H](C)CC[C@@H](OC(=O)C(C)N(C)C)[C@H](C)[C@H](OC(C)=O)[C@H](C)CCO)C/C=C/[C@H](OC)C[C@H](C)C/C=C/[C@@H](OC)CC[C@@H](C)[C@@H](O)[C@@H]1C)N(C)C (stereo not given in full),82,38,0.0026,18,–,–,–,–
COCC(C(=O)O[C@@H]1C/C=C/C=C/C(=O)O[C@H]([C@@H](C)[C@@H](O)[C@@H](C)CC[C@@H](OC(=O)C(C)N(C)C)[C@H](C)[C@H](OC(C)=O)[C@H](C)/C=C/N(C)C=O)C/C=C/[C@H](OC)C[C@H](C)C/C=C(\C)[C@@H](OC)CC[C@@H](C)[C@@H](O)[C@@H]1C)N(C)C (stereo not given in full) [APLYRONINE A],100,31,0.00048,100,–,–,–,–
